From US11353463B2, “Redox-based reagents for methionine bioconjugation” (The Regents of the University of California, priority 2016, dated 2022)

Legend:
[1] = Stability of redox conjugation product sulfimide (NMR); assay type: physicochemical; conditions: salt form under strong acidic condition
Protocol: The reactivity of oxaziridine probes with other biologically relevant amino acid competitors was evaluated. […] HeLa cell lysates were treated with Ox4, trypsin digested, and then analyzed by LC-MS/MS for probe modification on all nucleophilic amino acids using the X!Tandem program^43. […] Finally, the chemical stability of the sulfimide methionine conjugation product was tested, finding that this linkage is resistant to acidic and basic conditions, elevated temperature, as well as treatment with a strong protein disulfide reducing agent such as tris(2-carboxyethyl)phophine (TCEP).
The stability of sulfimides were tested by treatment of sulfimides S2 with 5 mM TCEP or treatment of sulfimides S3 with 1 N HC1, 1 N NaOH or 80° C. in co-solvent (d-MeOD/D2O=1:1). The reactions were monitored by NMR after 1 h and 18 h and the reaction conversions were calculated based on NMR data.

[2] = molecular target: bovine serum albumin (BSA) (Bos taurus, UniProt P02769); experiment: ReACT labeling of BSA, CuAAC with Cy3-azide, in-gel fluorescence imaging
Protocol: FIG. 1A Left panel: Acid-base conjugation strategies for cysteine-based protein functionalization; Right panel: Redox-Activated Chemical Tagging (ReACT) strategies for methionine-based protein functionalization. Oxaziridine (Ox) compounds serve as oxidant-sulfimide conjugation product. (B) Model redox conjugation reaction with 25 μM of N-acetyl-L-methionine methyl ester (Si) and 27.5 μM of various oxaziridine compounds as substrates in co-solvent. (C) Number of unique redox conjugation carrying peptide on representative amino acid, namely Met, Lys and Cys by labeling HeLa cell lysate with Ox4 at the final concentration of 1 mM for 10 min. (D) Yield of conjugation reaction was performed with 15 μM of BSA carrying 4 methionine per protein and 100 μM Ox4 at indicated time point as measured by in-gel fluorescence imaging.
ReACT as a method for site-selective methionine conjugation of proteins was evaluated. […] The resulting redox conjugation yield to BSA was analyzed by in-gel fluorescence imaging. […] The reactivity of various alkyne- and azide-containing oxaziridine probes with CaM model protein was assessed (FIG. 2B). […]

bovine serum albumin (BSA), sequence (P02769 25-607): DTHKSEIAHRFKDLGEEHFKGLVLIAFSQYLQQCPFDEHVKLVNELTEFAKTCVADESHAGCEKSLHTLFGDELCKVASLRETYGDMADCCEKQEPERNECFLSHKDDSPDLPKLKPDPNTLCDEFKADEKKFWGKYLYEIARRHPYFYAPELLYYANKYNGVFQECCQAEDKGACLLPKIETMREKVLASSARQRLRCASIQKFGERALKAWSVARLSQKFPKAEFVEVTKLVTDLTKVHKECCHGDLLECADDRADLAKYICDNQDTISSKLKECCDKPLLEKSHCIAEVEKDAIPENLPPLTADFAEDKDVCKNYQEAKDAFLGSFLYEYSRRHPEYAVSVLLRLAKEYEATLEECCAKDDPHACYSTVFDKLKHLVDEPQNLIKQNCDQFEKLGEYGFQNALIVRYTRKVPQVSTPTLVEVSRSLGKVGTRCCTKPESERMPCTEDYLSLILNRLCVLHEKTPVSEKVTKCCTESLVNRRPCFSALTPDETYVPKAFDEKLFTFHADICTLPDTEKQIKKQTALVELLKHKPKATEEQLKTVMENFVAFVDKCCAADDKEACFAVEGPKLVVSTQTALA

| stability in aqueous solution [1] | redox conjugation yield to BSA ([2]; within 1-2 min, 15 μM BSA, 100 μM Ox4) [%] | labeling of BSA ([2]; within the first 5 s following addition of Ox4) [%] | Compound |
| --- | --- | --- | --- |
| stable in aqueous solution | – | – | CCNC(=O)N[S+](C)c1ccccc1.[Cl-] (stereo not drawn) [Ox S4] |
| – | > 95 | 50 | C#CCNC(=O)N1OC1c1ccccc1 (stereo not drawn) [Ox4, 3-Phenyl-N-(prop-2-yn-1-yl)-1,2-oxaziridine-2-carboxamide] |
